Measurements: patent US12290513B2, “Therapeutic methods and compositions for treating movement disorders” (Vima Therapeutics, Inc., priority 2023, dated 2025)
Values belong to the compound of their own block, whether it stands above or below them.

Legend:
[1] = test system: guinea pig ileum myenteric plexus-longitudinal muscle (MPLM) strips; test: EFS-induced contractions in guinea pig ileum MPLM strips
tear production = test: THP-induced dry eye in dogs: tear production; assay type: in vivo, Beagles; details: oral, 2 mpk alone
CYP2C9 = CYP2C9 (Homo sapiens, UniProt P11712); test: Incubation with recombinant CYP2C9
CYP2E1 = CYP2E1 (Homo sapiens, UniProt P05181); test: Incubation with recombinant CYP2E1
[2] = test system: haloperidol-induced catalepsy; test: Haloperidol-induced catalepsy (bar test); assay type: in vivo, Sprague Dawley rats; details: rats, haloperidol 1 mg/kg sc, Rac-THP 10, 20, 30 mg/kg, R-THP or S-THP 5, 10, 15 mg/kg ip
Method: Animals: Adult male Sprague Dawley rats (230-235 g) from Envigo were used in this study. Upon receipt, rats were group housed in ventilated cages and acclimated for one week prior to testing.
The front paws of a rat were placed then on a horizontal metal bar raised 6″ above a Plexiglas platform. Each rat underwent 3 trials of 60 seconds each. The test ended when the animal's front paws return to the platform or after 60 seconds. Rats were tested at 30 and 60 minutes after treatment.
Data were analyzed by one-way analysis of variance (ANOVA) followed by Tukey's post-hoc comparisons, where appropriate. Data are represented as mean and standard error to the mean (SEM).

[3] = Method: The resulting metabolites were analyzed by liquid chromatography-mass spectrometry, and metabolite peaks were detected and measured.
CYP2A6 = target: T1, CYP2A6 (Homo sapiens, UniProt P11509); test: Incubation with recombinant CYP2A6
T1 sequence (P11509 1-494): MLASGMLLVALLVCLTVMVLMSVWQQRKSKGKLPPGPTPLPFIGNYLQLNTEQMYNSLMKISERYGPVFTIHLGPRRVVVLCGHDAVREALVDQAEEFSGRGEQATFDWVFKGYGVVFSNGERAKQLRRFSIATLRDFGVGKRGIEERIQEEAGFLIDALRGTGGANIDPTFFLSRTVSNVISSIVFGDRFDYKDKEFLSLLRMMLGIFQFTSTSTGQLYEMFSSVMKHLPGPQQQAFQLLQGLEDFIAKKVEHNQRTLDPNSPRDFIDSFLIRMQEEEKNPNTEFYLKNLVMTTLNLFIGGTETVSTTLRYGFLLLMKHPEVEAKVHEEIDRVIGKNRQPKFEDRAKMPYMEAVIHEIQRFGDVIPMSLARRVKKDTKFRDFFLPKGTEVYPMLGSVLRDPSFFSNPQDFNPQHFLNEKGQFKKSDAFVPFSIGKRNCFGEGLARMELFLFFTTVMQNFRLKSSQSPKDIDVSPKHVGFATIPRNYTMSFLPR

CYP2C8 = target: T2, CYP2C8 (Homo sapiens, UniProt P10632); test: Incubation with recombinant CYP2C8
T2 sequence (P10632 1-490): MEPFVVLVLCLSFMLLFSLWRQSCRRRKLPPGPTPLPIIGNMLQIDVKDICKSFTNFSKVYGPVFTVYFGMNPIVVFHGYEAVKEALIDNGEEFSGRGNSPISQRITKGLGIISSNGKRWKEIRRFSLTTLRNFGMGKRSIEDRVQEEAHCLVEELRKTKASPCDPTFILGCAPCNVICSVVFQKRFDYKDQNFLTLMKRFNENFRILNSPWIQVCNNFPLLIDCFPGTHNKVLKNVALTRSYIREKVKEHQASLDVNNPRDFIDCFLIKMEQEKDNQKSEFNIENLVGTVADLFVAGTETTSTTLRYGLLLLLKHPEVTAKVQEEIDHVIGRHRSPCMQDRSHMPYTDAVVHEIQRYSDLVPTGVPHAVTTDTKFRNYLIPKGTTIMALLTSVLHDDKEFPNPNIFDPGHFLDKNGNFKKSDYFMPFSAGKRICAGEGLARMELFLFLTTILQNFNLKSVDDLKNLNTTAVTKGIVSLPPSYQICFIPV

CYP1A2 = target: T3, CYP1A2 (Homo sapiens, UniProt P05177); test: Incubation with recombinant CYP1A2
T3 sequence (P05177 1-516): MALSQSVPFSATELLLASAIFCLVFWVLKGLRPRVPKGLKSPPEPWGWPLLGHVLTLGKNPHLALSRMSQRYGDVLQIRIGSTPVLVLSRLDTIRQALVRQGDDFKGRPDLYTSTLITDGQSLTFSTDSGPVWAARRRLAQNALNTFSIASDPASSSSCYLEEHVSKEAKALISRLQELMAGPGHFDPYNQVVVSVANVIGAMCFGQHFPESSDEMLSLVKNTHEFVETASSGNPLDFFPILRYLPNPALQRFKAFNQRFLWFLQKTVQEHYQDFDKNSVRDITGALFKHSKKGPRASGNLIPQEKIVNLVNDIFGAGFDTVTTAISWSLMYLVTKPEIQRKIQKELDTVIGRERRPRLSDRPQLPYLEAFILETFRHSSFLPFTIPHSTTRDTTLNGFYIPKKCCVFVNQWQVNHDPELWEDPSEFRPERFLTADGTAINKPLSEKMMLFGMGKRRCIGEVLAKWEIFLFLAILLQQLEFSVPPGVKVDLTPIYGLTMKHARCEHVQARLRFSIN

CYP3A5 = CYP3A5 (Homo sapiens, UniProt P20815); test: Incubation with recombinant CYP3A5
CYP3A4 = CYP3A4 (Homo sapiens, UniProt P08684); test: Incubation with recombinant CYP3A4
CYP2D6 = CYP2D6 (Homo sapiens, UniProt P10635); test: Incubation with recombinant CYP2D6
CYP2C19 = CYP2C19 (Homo sapiens, UniProt P33261); test: Incubation with recombinant CYP2C19
CYP2B6 = target: T4, CYP2B6 (Homo sapiens, UniProt P20813); test: Incubation with recombinant CYP2B6
T4 sequence (P20813 1-491): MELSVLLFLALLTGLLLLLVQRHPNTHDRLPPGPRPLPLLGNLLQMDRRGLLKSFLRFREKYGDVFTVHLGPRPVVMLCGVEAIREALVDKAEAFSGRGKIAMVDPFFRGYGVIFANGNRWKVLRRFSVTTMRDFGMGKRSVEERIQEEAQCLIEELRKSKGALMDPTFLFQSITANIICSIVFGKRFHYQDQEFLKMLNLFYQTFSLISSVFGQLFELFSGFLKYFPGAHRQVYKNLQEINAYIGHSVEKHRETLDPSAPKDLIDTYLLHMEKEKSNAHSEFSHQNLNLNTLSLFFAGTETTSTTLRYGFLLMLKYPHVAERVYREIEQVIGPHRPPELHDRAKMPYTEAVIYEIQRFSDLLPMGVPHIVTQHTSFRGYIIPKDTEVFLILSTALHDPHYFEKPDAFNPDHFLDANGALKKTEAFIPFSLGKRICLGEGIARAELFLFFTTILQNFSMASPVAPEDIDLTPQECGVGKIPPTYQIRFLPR

[4] = Whole blood stability, dog
Method: (§1) Procedures for blood Stability. • A. 398 μL of blood from each species was added to an incubation plate, which was pre-warmed at 37C for 15 minutes. • B. After the pre-incubation, 2 μL of working solution (test compounds or control compounds) was spiked to 398 μL of blood to reach a final concentration of 1 μM for test compounds and 5 μM for control compounds. The final concentration of organic solvents is 0.5%. The assays were performed in duplicate. • C. The reaction samples were incubated at 37C. • D. Aliquots of 50 μL were taken from the reaction samples at 0, 15, 30, 60 and 120 minutes. The reaction was stopped by the addition of 50 μL ultrapure water and 400 μL cold acetonitrile. • E. All samples were vortexed for 10 minutes, followed by centrifugation at 3,220 g for 40 minutes to precipitate proteins. 100 μL of the supernatant was then transferred to a new plate. The supernatant was diluted with ultrapure water as needed for detection by LC-MS/MS. Sample Analysis
(§2) Samples were analyzed by LC-MS/MS to measure the concentration of the test compounds.
(§3) All calculations were carried out using Microsoft Excel and according to standard analysis methods that are known in the art.

[5] = Whole blood stability, human
Method: as §1, §2, §3

[6] = Whole blood stability, rat; details: rat whole blood, 37C
Method: as §1, §2, §3

[7] = cumulative concentration response curve, no pre-treatment

Sequence of CYP2E1 (P05181 whole entry): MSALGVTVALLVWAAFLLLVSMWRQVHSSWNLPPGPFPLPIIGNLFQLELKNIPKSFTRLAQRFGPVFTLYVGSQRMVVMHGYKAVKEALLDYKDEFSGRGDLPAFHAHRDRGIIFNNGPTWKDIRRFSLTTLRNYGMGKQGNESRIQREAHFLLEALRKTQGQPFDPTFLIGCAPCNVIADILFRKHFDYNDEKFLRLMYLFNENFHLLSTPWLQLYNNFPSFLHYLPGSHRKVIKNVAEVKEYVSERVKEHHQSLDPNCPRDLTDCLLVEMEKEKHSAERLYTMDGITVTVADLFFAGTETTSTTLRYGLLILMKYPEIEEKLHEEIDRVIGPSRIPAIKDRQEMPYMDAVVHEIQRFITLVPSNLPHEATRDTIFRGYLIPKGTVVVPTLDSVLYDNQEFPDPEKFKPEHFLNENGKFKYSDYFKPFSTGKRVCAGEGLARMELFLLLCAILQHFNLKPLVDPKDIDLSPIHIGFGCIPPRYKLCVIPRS
Sequence of CYP2C9 (P11712 whole entry): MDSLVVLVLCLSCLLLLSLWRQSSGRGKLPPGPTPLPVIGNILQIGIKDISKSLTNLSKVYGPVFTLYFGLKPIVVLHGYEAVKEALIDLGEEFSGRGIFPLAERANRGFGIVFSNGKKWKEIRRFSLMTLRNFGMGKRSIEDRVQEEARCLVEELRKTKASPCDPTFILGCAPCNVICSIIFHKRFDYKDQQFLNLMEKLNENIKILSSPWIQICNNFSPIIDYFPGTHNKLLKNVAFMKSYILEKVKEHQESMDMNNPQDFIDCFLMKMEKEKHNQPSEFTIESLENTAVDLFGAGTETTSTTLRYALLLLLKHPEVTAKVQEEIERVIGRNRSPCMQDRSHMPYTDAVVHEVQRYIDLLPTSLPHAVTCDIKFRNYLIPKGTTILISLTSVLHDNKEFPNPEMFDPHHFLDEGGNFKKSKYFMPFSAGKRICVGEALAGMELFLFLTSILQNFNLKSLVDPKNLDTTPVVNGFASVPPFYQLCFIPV
Sequence of CYP3A4 (P08684 whole entry): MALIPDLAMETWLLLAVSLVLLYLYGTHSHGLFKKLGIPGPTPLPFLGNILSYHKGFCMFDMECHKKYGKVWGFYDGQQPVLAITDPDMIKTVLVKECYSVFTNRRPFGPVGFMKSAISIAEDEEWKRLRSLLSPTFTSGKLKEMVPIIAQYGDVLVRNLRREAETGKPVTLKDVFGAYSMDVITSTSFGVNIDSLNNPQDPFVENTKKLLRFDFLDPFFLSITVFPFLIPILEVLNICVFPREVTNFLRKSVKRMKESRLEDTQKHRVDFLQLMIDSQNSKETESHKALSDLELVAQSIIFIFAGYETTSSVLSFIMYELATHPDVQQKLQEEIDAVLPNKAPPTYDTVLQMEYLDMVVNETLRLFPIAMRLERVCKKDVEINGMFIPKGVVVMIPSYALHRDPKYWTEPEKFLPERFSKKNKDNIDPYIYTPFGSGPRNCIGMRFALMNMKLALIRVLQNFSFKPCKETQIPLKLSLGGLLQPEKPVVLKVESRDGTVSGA
Sequence of CYP3A5 (P20815 whole entry): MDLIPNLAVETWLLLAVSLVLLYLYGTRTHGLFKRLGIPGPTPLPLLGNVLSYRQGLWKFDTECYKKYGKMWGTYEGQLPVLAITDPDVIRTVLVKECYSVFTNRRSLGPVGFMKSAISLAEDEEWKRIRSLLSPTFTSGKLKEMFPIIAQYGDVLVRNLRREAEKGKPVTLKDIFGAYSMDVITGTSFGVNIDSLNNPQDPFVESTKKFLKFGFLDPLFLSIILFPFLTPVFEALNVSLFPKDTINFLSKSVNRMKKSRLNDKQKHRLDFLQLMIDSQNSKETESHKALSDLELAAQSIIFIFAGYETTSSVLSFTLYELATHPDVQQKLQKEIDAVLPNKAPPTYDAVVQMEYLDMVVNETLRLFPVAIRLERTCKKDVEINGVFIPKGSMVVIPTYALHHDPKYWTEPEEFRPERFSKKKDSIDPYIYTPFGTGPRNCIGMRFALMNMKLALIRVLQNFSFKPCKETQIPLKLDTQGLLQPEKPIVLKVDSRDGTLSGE
Sequence of CYP2D6 (P10635 whole entry): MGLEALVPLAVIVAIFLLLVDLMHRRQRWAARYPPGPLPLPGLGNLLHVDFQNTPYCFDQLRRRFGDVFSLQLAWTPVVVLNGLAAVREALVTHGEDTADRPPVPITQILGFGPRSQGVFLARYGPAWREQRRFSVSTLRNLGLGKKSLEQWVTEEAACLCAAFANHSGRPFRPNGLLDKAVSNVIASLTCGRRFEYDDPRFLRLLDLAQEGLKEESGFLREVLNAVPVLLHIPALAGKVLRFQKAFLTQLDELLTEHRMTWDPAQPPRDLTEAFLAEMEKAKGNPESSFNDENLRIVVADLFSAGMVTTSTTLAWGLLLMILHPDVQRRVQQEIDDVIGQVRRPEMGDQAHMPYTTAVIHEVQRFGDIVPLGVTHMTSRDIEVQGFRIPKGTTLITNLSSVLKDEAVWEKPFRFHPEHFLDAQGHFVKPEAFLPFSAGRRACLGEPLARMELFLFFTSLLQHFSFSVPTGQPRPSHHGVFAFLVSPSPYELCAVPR
Sequence of CYP2C19 (P33261 whole entry): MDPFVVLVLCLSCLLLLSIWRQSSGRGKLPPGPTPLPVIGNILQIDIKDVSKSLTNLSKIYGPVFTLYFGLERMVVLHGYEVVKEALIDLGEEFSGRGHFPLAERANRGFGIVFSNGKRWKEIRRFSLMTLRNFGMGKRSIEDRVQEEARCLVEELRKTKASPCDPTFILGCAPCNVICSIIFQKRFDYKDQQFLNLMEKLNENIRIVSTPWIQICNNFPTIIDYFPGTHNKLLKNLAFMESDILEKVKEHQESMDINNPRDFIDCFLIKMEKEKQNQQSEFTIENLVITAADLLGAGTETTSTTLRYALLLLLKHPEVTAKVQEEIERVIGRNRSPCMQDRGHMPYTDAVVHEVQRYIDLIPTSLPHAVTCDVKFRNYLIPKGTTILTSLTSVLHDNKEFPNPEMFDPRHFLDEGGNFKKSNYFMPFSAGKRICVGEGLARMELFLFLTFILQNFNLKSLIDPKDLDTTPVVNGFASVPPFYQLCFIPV

Compound: CC(C[N+](C)(C)C)OC(N)=O (racemic) [BTC, bethanechol]
change over baseline ([1]; BTC at 30 μM following pre-treatment with Rac-THP at 30 nM): up to 50% | response of EFS-stimulated MPLM strips [1, 7]: concentration-dependent contraction | response of EFS-stimulated MPLM strips ([1]; following pre-treatment with Rac-THP at 30 nM): concentration-dependent relaxation of the isolated MPLM strips back to baseline | % Baseline tear production (tear production; 1 hour post administration): 107% | % Baseline tear production (tear production; 4 hours post administration): 117%

Compound: OC(CCN1CCCCC1)(c1ccccc1)C1CCCCC1 (racemic) [Rac-THP, racemic trihexyphenidyl]
CLint (CYP2C9): 0.00 µL/min/pmol | t1/2 (CYP2C9; unit not given): ∞ | CLint (CYP2E1): 0.00 µL/min/pmol | t1/2 (CYP2E1; unit not given): ∞ | time spent holding bar, haloperidol-induced catalepsy ([2]; 30 minutes after injection): significantly attenuated haloperidol-induced catalepsy | time spent holding bar, haloperidol-induced catalepsy ([2]; 60 minutes after injection): significantly attenuated haloperidol-induced catalepsy | metabolites detected [3]: metabolite 18 when incubated with microsomes, but additional metabolites 13, 14, and 16 were also observed | CLint (CYP2A6): 0.00 µL/min/pmol | t1/2 (CYP2A6; unit not given): ∞ | CLint (CYP2C8): 0.00 µL/min/pmol | t1/2 (CYP2C8; unit not given): ∞ | Substrates of CYP1A2 (CYP1A2): S and Rac | response of EFS-stimulated MPLM strips [1, 7]: concentration-dependent relaxation response | Substrates of CYP3A5 (CYP3A5): Rac, R and S | Substrates of CYP3A4 (CYP3A4): Rac, R and S | Substrates of CYP2D6 (CYP2D6): Rac, R and S | Substrates of CYP2C19 (CYP2C19): Rac, R and S | CLint (CYP2B6): 0.00 µL/min/pmol | t1/2 (CYP2B6; unit not given): ∞

Remaining Percentages (%) 0 min ([4]; dog whole blood, 37C): 100.00% | Remaining Percentages (%) 15 min ([4]; dog whole blood, 37C): 91.17% | Remaining Percentages (%) 30 min ([4]; dog whole blood, 37C): 90.30% | Remaining Percentages (%) 60 min ([4]; dog whole blood, 37C): 85.38% | Remaining Percentages (%) 120 min ([4]; dog whole blood, 37C): 62.08% | half-life at 5 μM ([4]; dog, whole blood): 184 min | Remaining Percentages (%) 0 min ([5]; human whole blood, 37C): 100.00% | Remaining Percentages (%) 15 min ([5]; human whole blood, 37C): 71.54% | Remaining Percentages (%) 30 min ([5]; human whole blood, 37C): 57.19% | Remaining Percentages (%) 60 min ([5]; human whole blood, 37C): 25.74% | Remaining Percentages (%) 120 min ([5]; human whole blood, 37C): 6.31% | half-life at 5 μM ([5]; human, whole blood): 31 min
Compound: CC(C)[N+](C)(CCOC(=O)C1c2ccccc2Oc2ccccc21)C(C)C [Propantheline]

Compound: O=C(CCCN1CCC(O)(c2ccc(Cl)cc2)CC1)c1ccc(F)cc1 [haloperidol, Haloperidol]
time spent holding bar, haloperidol-induced catalepsy ([2]; 30 minutes after injection): significantly increased the time the rats spend holding the bar | time spent holding bar, haloperidol-induced catalepsy ([2]; 60 minutes after injection): significantly increased the time the rats spend holding the bar

Compound: Mevinolin
Remaining Percentages (%) 0 min [6]: 100.00% | Remaining Percentages (%) 15 min [6]: 9.32% | Remaining Percentages (%) 30 min [6]: 1.68% | Remaining Percentages (%) 60 min [6]: 2.21% | Remaining Percentages (%) 120 min [6]: 2.47% | t1/2 [6]: 4.38 min
